Where “and” joins values, the source holds several entries; their conditions need not be identical. Equal values may be shown once.
Tests used:
hCB1 [1] = biological target: T1, hCB1 (Homo sapiens, UniProt P21554); assay: bioSensAll ebBRET signaling profiling, hCB1; type: cell-based; design: host or cells: HEK293SL cells, transient PEI transfection; details: for GoB hCB1 / Gi1 hCB1: single replicate values, FigS6a; for EC50: read-out: EC50 [95% CI]; for Emax: normalized to CP-55,940
hCB1 [2] = biological target: T1, hCB1; assay: Tango β-arrestin-2 recruitment, HTLA cells, CB1R; type: cell-based; design: expressed in transfected cells; host or cells: HTLA cells (gift of R. Axel), transient transfection
CB1 (rCB1) = CB1 (rCB1) (Rattus norvegicus, UniProt P20272); assay: Radioligand competition binding, [3H]-CP-55,940, rat brain membranes
Sequence of CB1 (rCB1) (P20272 whole entry): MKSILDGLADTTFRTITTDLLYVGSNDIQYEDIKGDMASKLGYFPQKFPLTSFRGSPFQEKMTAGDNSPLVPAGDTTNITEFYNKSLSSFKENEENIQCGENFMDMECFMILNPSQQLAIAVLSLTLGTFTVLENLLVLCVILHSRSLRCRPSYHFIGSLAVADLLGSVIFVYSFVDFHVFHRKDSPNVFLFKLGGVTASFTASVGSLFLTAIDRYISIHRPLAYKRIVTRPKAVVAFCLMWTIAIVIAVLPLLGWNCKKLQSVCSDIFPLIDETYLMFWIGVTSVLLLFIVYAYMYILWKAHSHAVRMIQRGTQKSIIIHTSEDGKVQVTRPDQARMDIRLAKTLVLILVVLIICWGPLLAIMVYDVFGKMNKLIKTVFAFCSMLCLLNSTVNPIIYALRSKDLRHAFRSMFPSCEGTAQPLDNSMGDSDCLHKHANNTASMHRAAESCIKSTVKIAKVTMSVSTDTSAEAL

T1 sequence (P21554 whole entry): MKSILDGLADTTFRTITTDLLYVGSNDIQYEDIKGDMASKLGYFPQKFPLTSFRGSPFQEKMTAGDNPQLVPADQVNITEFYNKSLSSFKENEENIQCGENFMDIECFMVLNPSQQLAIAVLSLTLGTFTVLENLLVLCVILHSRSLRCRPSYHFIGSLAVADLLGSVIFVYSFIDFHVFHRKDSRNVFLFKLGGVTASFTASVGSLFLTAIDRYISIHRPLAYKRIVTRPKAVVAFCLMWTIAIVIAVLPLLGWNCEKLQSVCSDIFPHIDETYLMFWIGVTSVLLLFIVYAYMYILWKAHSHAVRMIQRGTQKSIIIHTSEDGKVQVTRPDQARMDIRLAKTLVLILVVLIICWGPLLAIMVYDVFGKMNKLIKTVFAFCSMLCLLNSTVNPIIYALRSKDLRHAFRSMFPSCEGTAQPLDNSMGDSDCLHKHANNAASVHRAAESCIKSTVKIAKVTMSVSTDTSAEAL

COC(=O)C(NC(=O)c1cc(C)n(-c2cccc(C(F)(F)F)c2)n1)c1cccs1 (stereo not drawn) [‘60154]
GoB hCB1 (hCB1 [1]; Log [Compound] (M) -8.22186): 16.822 | Gi1 hCB1 (hCB1 [1]; Log [Compound] (M) -8.39794): 14.1027 | GoB hCB1 (hCB1 [1]; Log [Compound] (M) -8.39794): 15.743 | Gi1 hCB1 (hCB1 [1]; Log [Compound] (M) -8.68787): 6.5794 | GoB hCB1 (hCB1 [1]; Log [Compound] (M) -8.68787): 4.5753 | Gi1 hCB1 (hCB1 [1]; Log [Compound] (M) -9.15521): 2.17 | GoB hCB1 (hCB1 [1]; Log [Compound] (M) -9.15521): -0.7658 | Gi1 hCB1 (hCB1 [1]; Log [Compound] (M) -9.61989): 0.08902 | GoB hCB1 (hCB1 [1]; Log [Compound] (M) -9.61989): 0.7808 | Gi1 hCB1 (hCB1 [1]; Log [Compound] (M) -10.0969): -0.8206 | GoB hCB1 (hCB1 [1]; Log [Compound] (M) -10.0969): -0.1723 | Gi1 hCB1 (hCB1 [1]; Log [Compound] (M) -10.5529): 0.8599 | GoB hCB1 (hCB1 [1]; Log [Compound] (M) -10.5529): -2.762 | Gi1 hCB1 (hCB1 [1]; Log [Compound] (M) -11.0177): 1.677 | GoB hCB1 (hCB1 [1]; Log [Compound] (M) -11.0177): -1.018 | Gi1 hCB1 (hCB1 [1]; Log [Compound] (M) -11.4949): 1.6461 | GoB hCB1 (hCB1 [1]; Log [Compound] (M) -11.4949): -1.935 | Gi1 hCB1 (hCB1 [1]; Log [Compound] (M) -11.9208): -0.003475 | GoB hCB1 (hCB1 [1]; Log [Compound] (M) -11.9208): -0.2982 | Gi1 hCB1 (hCB1 [1]; Log [Compound] (M) -12.3979): 0.3049 | GoB hCB1 (hCB1 [1]; Log [Compound] (M) -12.3979): 0.619 | Gi1 hCB1 (hCB1 [1]; Log [Compound] (M) -12.8861): 1.261 | GoB hCB1 (hCB1 [1]; Log [Compound] (M) -12.8861): -2.69 | Gi1 hCB1 (hCB1 [1]; Log [Compound] (M) -13): 0.459 and 0.9986 | GoB hCB1 (hCB1 [1]; Log [Compound] (M) -13): -0.2622 and -1.953 | pEC50 [95% CI] (hCB1 [1]; hCB1 Gi1): 7.6 [7.5 – 7.7] | pEC50 [95% CI] (hCB1 [1]; hCB1 GoB): 7.7 [7.7 – 7.8] | pEC50 [95% CI] (hCB1 [1]; hCB1 Gz): 7.8 [7.4 – 8.1] | EC50 (hCB1 [1]; hCB1 Gi1): 2.5 nM | EC50 (hCB1 [1]; hCB1 GoB): 18.4 nM | EC50 (hCB1 [1]; hCB1 Gz): 17.5 nM | Emax (hCB1 [1]; read-out: Emax [95% CI], hCB1 Gi1): 92% | Emax (hCB1 [1]; read-out: Emax [95% CI], hCB1 GoB): 100% | Emax (hCB1 [1]; read-out: Emax [95% CI], hCB1 Gz): 121% | Emax (hCB1 [2]; HTLA, hCB1, read-out: Tango ß-arrestin recruitment Emax): 39% | response, replicate values of concentration-response curve (FigS7f) (hCB1 [2]; Log[drug], M = -4.52): 20.429 and 104.707 and 123.061 and 26.6803 and 2.239 and 9.553 and 21.4993 and 25.3085 and 22.5804 | response at Log[drug], M -4.52 (FigS4e) (hCB1 [2]; Log[drug], M = -4.52, individual replicates): 36.2928 and 40.0634 and 37.595 and 38.9593 and 35.7322 and 28.0596 and 40.2042 and 37.7287 and 36.7316 and 48.023 and 52.3904 and 37.2251 | response, replicate values of concentration-response curve (FigS7f) (hCB1 [2]; Log[drug], M = -5): 29.3399 and 77.9872 and 24.9124 and 21.905 and 24.6119 and -7.914 and 14.0694 and 22.9469 and 35.7257 and 39.8379 and 27.6728 and 20.59 | response at Log[drug], M -5 (FigS4e) (hCB1 [2]; Log[drug], M = -5, individual replicates): 27.1965 and 33.9994 and 36.3175 and 44.6129 and 35.5189 and 28.3176 and 42.1758 and 38.9685 and 43.9354 and 46.1208 and 46.0399 and 37.7973 | response, replicate values of concentration-response curve (FigS7f) (hCB1 [2]; Log[drug], M = -5.52): 24.9035 and 48.7158 and 91.1283 and -6.947 and -26.9779 and -11.1207 and 46.9121 and 22.8407 and -5.557 and 12.4866 and 10.6983 and 18.3267 | response at Log[drug], M -5.52 (FigS4e) (hCB1 [2]; Log[drug], M = -5.52, individual replicates): 25.9735 and 23.5078 and 35.2885 and 29.1149 and 28.5437 and 33.06 and 31.1872 and 38.5344 and 34.9915 and 38.6816 and 30.9446 and 24.7853 | response, replicate values of concentration-response curve (FigS7f) (hCB1 [2]; Log[drug], M = -6): 35.6397 and 64.0988 and 28.3754 and -0.07579 and -2.1717 and -13.0474 and 37.7825 and -1.0184 and -20.7108 and 24.6113 and 35.271 and 22.6916 | response at Log[drug], M -6 (FigS4e) (hCB1 [2]; Log[drug], M = -6, individual replicates): 18.7026 and 18.3517 and 20.9876 and 21.9355 and 21.9032 and 30.9802 and 39.6213 and 23.6016 and 27.6778 and 23.7782 and 27.0192 and 15.1437 | response, replicate values of concentration-response curve (FigS7f) (hCB1 [2]; Log[drug], M = -6.52): 40.4184 and 15.2889 and -15.0213 and 0.4345 and 12.418 and 31.9131 and 56.5195 and 30.6699 and -7.454 and 15.9018 and 24.7629 and -25.11 | response at Log[drug], M -6.52 (FigS4e) (hCB1 [2]; Log[drug], M = -6.52, individual replicates): 2.7065 and 1.809 and 4.4042 and 2.4679 and 5.955 and 7.47 and 7.413 and 8.766 and 8.7 and 7.813 and 3.502 and 4.219 | response, replicate values of concentration-response curve (FigS7f) (hCB1 [2]; Log[drug], M = -7): 42.117 and 22.4701 and 33.4423 and -35.9633 and 6.562 and -3.7308 and 26.543 and 5.232 and -0.3284 and 16.0836 and -9.206 and -14.6626 | response at Log[drug], M -7 (FigS4e) (hCB1 [2]; Log[drug], M = -7, individual replicates): -0.1594 and 1.156 and 1.734 and 0.4738 and 1.35 and 4.375 and 5.525 and -1.39 and -1.9125 and 2.9502 and 2.623 and 0.09812 | response, replicate values of concentration-response curve (FigS7f) (hCB1 [2]; Log[drug], M = -7.52): 9.097 and 42.2455 and 14.1224 and 6.121 and -38.1578 and 8.235 and 7.554 and -8.104 and 19.7008 and -1.133 and -13.7734 | response at Log[drug], M -7.52 (FigS4e) (hCB1 [2]; Log[drug], M = -7.52, individual replicates): -0.8122 and -1.1619 and -0.1273 and 2.722 and 1.436 and 3.312 and 3.337 and -1.53 and 0.254 and -0.2279 and 0.3901 and 2.167 | response at Log[drug], M -8 (FigS4e) (hCB1 [2]; Log[drug], M = -8, individual replicates): -0.5798 and -1.11 and -0.9423 and 0.6357 and 0.4201 and 2.003 and 3.003 and -1.545 and 0.894 and 0.1363 and 0.04065 and -0.5839 | response at Log[drug], M -8.52 (FigS4e) (hCB1 [2]; Log[drug], M = -8.52, individual replicates): -0.1435 and -1.173 and 0.8807 and -1.256 and 3.396 and 0.2695 and 3.693 and -1.556 and 1.54 and 0.762 and 0.3566 and -1.166 | response at Log[drug], M -9 (FigS4e) (hCB1 [2]; Log[drug], M = -9, individual replicates): -0.3789 and 0.9257 and 0.4985 and -1.1206 and 0.6246 and 1.649 and 1.459 and 1.082 and -0.1538 and 1.773 and 1.969 and 1.368 | response, replicate values of concentration-response curve (FigS7f) (hCB1 [2]; Log[drug], M = -9.52): 41.217 and -5.872 and -26.7955 and -2.208 and 11.6321 and -16.1909 and 10.2609 and 13.9367 and -21.8387 and 26.5917 | response at Log[drug], M -9.52 (FigS4e) (hCB1 [2]; Log[drug], M = -9.52, individual replicates): -0.6308 and 0.506 and 1.398 and 0.3411 and 1.417 and 1.054 and 1.983 and 0.4806 and -1.1508 and 1.754 and 1.621 and -0.4835 | response, replicate values of concentration-response curve (FigS7f) (hCB1 [2]; Log[drug], M = -10): 24.3711 and 8.545 and -42.2513 and 15.4728 and -21.9203 and 6.572 and 26.8747 and -5.278 and 28.0467 and 13.9517 | response at Log[drug], M -10 (FigS4e) (hCB1 [2]; Log[drug], M = -10, individual replicates): -0.3624 and -0.5584 and 1.6 and 1.1356 and 0.03407 and 2.157 and 0.3066 and -2.677 and -0.1348 and -0.07275 and 2.928 and 0.8882 | response at Log[drug], M -10.52 (FigS4e) (hCB1 [2]; Log[drug], M = -10.52, individual replicates): -0.1972 and -0.5734 and -0.1162 and -0.5884 and 2.053 and 3.553 and 2.404 and 0.5855 and 0.2182 and 0.2755 and 0.7811 and -2.185 | response at Log[drug], M -11 (FigS4e) (hCB1 [2]; Log[drug], M = -11, individual replicates): -0.4863 and -0.2436 and -0.1687 and -1.788 and -0.3582 and 1.843 and 0.2942 and 1.859 and 1.201 and 2.6701 and -0.898 and 1.465 | response at Log[drug], M -11.52 (FigS4e) (hCB1 [2]; Log[drug], M = -11.52, individual replicates): -1.461 and -1.915 and -0.401 and -1.735 and -0.6638 and -0.2757 and -0.3004 and 0.6619 and 0.7048 and -0.5021 and 3.748 and -0.3785 | response at Log[drug], M -12 (FigS4e) (hCB1 [2]; Log[drug], M = -12, individual replicates): 0.3314 and 0.2511 and -0.1836 and 1.061 and -0.3335 and 0.1951 and -0.1931 and -0.7644 and -0.8837 and -0.1348 and 1.783 and -1.1281 | Tango ß-arrestin recruitment pEC50 (hCB1 [2]; hCB1): 6.1 [6.0 – 6.1] | EC50 (hCB1 [2]; hCB1, read-out: Tango ß-arrestin recruitment EC50): 819 nM | improvement in affinity (free energy) (CB1 (rCB1); CF3 replacing F, ‘51486 vs ‘60154): -1.7 kcal/mol | LLE (lipophilic ligand efficiency) (CB1 (rCB1); LLE = pIC50 − clogP): 3.5 | binding free energy ΔG (CB1 (rCB1); from measured Ki): 10.0 kcal/mol | LE (ligand efficiency) (CB1 (rCB1); from rCB1 affinity): 0.36 | pKi [95% CI] (CB1 (rCB1); rCB1): 7.4 [7.2 – 7.5] | Ki (CB1 (rCB1); read-out: Ki [95% CI], rCB1, [3H]-CP-55,940): 44 nM and 44.3 nM | fold improvement in CB1R affinity (CB1 (rCB1); vs parent hit or analog without the change): 17 fold
